Reference: PMC12277336, “Hypericum empetrifolium subsp. empetrifolium: an assessment of its antifungal, antidiabetic, anti-aging, and neuroprotective potential” (Frontiers in Pharmacology, 2025)
Values after ≈ are worked out from the molar mass of the structure shown. Values joined by “and” are separate entries in the source; they are usually repeats but may differ in a detail not shown here. Equal values may be shown once.

How the values were obtained:
[1] = system: P. aeruginosa ATCC 27853; test: MIC, broth microdilution; assay type: cell-based; details: Pseudomonas aeruginosa, ATCC27853
Procedure: (§1) The Minimum Inhibitory Concentrations (MIC) of the extracts were determined using the broth microdilution method in accordance with the guidelines of the Clinical and Laboratory Standards Institute (CLSI) ([Clinical and Laboratory Standards Institute, 2020]). The procedure was originally based on the CLSI M27-A2 standard (1997) ([[…]]) for antifungal susceptibility testing, while the updated fourth edition (2017) was referenced to reflect current methodological standards ([[…]]).
(§2) The inocula of the tested bacterial and yeast strains were prepared following CLSI protocols, and the extracts were dissolved in DMSO to prepare stock solutions. Serial dilutions ranging from 1,250 to 0.06 μ g/mL were performed in Mueller-Hinton Broth (for bacterial strains) and RPMI-1640 medium (for yeast strains). MIC values of the extracts were determined against four g (−) bacterial strains (P. aeruginosa ATCC 27853, Escherichia coli ATCC 25922, Klebsiella pneumoniae ATCC 4352, Proteus mirabilis ATCC 14153), three g (+) bacterial strains (Staphylococcus aureus ATCC 29213, Staphylococcus epidermidis ATCC 12228, Enterococcus faecalis ATCC 29212), and three yeast strains (Candida albicans ATCC 10231, Candida parapsilosis ATCC 22019, Candida tropicalis ATCC 750).

[2] = system: Candida albicans ATCC 10231; test: MIC, broth microdilution; assay type: cell-based; details: ATCC10231, C. albicans ATCC 10231
Procedure: as §1, §2

[3] = system: Enterococcus faecalis ATCC 29212; test: MIC, broth microdilution; assay type: cell-based; details: ATCC29212
Procedure: as §1, §2

[4] = DPPH free radical scavenging assay
Procedure: The DPPH radical scavenging assay was evaluated using 1,1-diphenyl-2-picrylhydrazyl (DPPH) free radical according to the method developed by [Blois (1958)]. Extracts were dissolved in methanol at a concentration of 1 mg/mL to prepare the primary stock solutions. Aliquots of these solutions, in volumes of 2, 5, 10, and 20 μ L, were each diluted to a final volume of 40 μ L with methanol. Subsequently, 160 μ L of DPPH solution at a 0.1 mM concentration was introduced to each mixture. After the solutions were incubated at room temperature in the dark for 30 min, their absorbance was measured at a wavelength of 517 nm. BHA, BHT, and α -TOC were used as positive control.

[5] = ABTS cation radical scavenging assay
Procedure: The ABTS cation radical scavenging assay was evaluated using 2,2′-azino-bis(3-ethylbenzothiazoline-6-sulfonic acid) according to the method developed by [Re et al. (1999)]. Extracts were dissolved in methanol at a concentration of 1 mg/mL to prepare the primary stock solutions. Aliquots of these solutions, in volumes of 2, 5, 10, and 20 μ L, were each diluted to a final volume of 40 μ L with methanol. Subsequently, 160 μ L of ABTS cation radical solution at a 7 mM concentration was introduced to each mixture. The reactions were allowed to proceed in darkness for 6 min, subsequent to which the absorbance was recorded at a wavelength of 734 nm. BHA, BHT, and α -TOC were used as positive control.

[6] = Cupric reducing antioxidant capacity (CUPRAC); details: 450 nm
Procedure: The absorbance of this chelate formation is then quantified at a wavelength of 450 nm. In the CUPRAC method, according to the procedure developed by Apak et al.; Cu (II), neocuproine (2,9-dimethyl-1,10-phenanthroline), and NH4OAc buffer were added to the sample and standard solutions to achieve final concentrations of 10, 25, 50, and 100 μ g/mL. After an incubation period of 1 h, the absorbance was measured at 450 nm. BHA, BHT, and α -TOC were used as positive control ([Apak et al., 2004]).

[7] = molecular target: T1, Porcine pancreatic elastase (Sus scrofa, UniProt P00772); test: Anti-elastase assay; assay type: biochemical
T1 construct: Porcine pancreatic elastase (E.C. 3.4.21.36); from tissue; host or cells: porcine pancreas
T1 sequence (P00772 27-266): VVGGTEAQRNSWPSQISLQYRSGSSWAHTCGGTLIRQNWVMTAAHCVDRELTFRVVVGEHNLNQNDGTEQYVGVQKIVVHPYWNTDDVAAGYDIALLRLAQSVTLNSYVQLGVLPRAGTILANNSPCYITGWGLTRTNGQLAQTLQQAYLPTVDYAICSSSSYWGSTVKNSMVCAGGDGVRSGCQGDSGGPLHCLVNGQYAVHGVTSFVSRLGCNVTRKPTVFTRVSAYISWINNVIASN
Procedure: The elastase inhibition assay was conducted using a spectrophotometric method developed by [Lee et al. (1999)]. Porcine pancreatic elastase (E.C. 3.4.21.36) at a concentration of 3.33 mg/mL was used as the enzyme and dissolved in 0.2 mM Tris-HCl buffer (pH 8.0). The substrate, N-Succinyl-Ala-Ala-Ala-p-nitroanilide (SANA), was prepared in the same buffer at a concentration of 1.6 mM. For each reaction, 50 μ L of buffer, 25 μ L of enzyme solution, and 50 μ L of the test extract were pre-incubated at room temperature for 15 min before the addition of SANA. Epigallocatechin gallate (EGCG) was used as the positive control, while ethanol served as the negative control. The reaction was initiated by adding 125 μ L of the substrate solution to the mixture, followed by incubation at room temperature for 20 min. The absorbance change was then measured at 410 nm.

[8] = system: Escherichia coli ATCC 25922; test: MIC, broth microdilution; assay type: cell-based; details: E. coli ATCC 25922
Procedure: as §1, §2

[9] = system: Klebsiella pneumoniae ATCC 4352; test: MIC, broth microdilution; assay type: cell-based; details: K. pneumoniae ATCC 4352
Procedure: as §1, §2

[10] = system: Staphylococcus epidermidis ATCC 12228; test: MIC, broth microdilution; assay type: cell-based; details: S. epidermidis ATCC 12228
Procedure: as §1, §2

[11] = system: Proteus mirabilis ATCC 14153; test: MIC, broth microdilution; assay type: cell-based; details: P. mirabilis ATCC 14153
Procedure: as §1, §2

[12] = system: Staphylococcus aureus ATCC 29213; test: MIC, broth microdilution; assay type: cell-based; details: S. aureus ATCC 29213
Procedure: as §1, §2

[13] = molecular target: α-Glucosidase; details: flavonoids isolated from H. attenuatum; ref Jin et al., 2021; cited from earlier work
[14] = system: Candida tropicalis ATCC 750; test: MIC, broth microdilution; assay type: cell-based; details: ATCC750, C. tropicalis ATCC 750
Procedure: as §1, §2

[15] = system: Candida parapsilosis ATCC 22019; test: MIC, broth microdilution; assay type: cell-based; details: Lodderomyces parapsilosis, ATCC22019; C. parapsilosis ATCC 22019
Procedure: as §1, §2

CC(C)(O/N=C(\C(=O)N[C@@H]1C(=O)N2C(C(=O)[O-])=C(C[n+]3ccccc3)CS[C@H]12)c1csc(N)n1)C(=O)O [Ceftazidime]
MIC [1]: 2.4 µg/mL (≈ 4.39 µM)

Clc1ccccc1C(c1ccccc1)(c1ccccc1)n1ccnc1 [Clotrimazole]
MIC [2]: 4.9 µg/mL (≈ 14.2 µM)

NCC[C@H](O)C(=O)N[C@@H]1C[C@H](N)[C@@H](O[C@H]2O[C@H](CN)[C@@H](O)[C@H](O)[C@H]2O)[C@H](O)[C@H]1O[C@H]1O[C@H](CO)[C@@H](O)[C@H](N)[C@H]1O [Amikacin]
MIC [3]: 128 µg/mL (≈ 219 µM)

COc1ccc(O)c(C(C)(C)C)c1 [BHA]
DPPH (% Inhibition) ([4]; 10 µg/mL): 62.00 ± 0.90% | DPPH (% Inhibition) ([4]; 25 µg/mL): 71.86 ± 0.76% | DPPH (% Inhibition) ([4]; 50 µg/mL): 74.48 ± 0.35% | DPPH (% Inhibition) ([4]; 100 µg/mL): 75.23% | ABTS (% Inhibition) ([5]; 10 µg/mL): 63.94 ± 0.18% | ABTS (% Inhibition) ([5]; 25 µg/mL): 78.23 ± 1.08% | ABTS (% Inhibition) ([5]; 50 µg/mL): 87.41 ± 0.16% | ABTS (% Inhibition) ([5]; 100 µg/mL): 87.62% | CUPRAC (Absorbance) ([6]; 10 µg/mL): 0.838 ± 0.03 | CUPRAC (Absorbance) ([6]; 25 µg/mL): 1.647 ± 0.18 | CUPRAC (Absorbance) ([6]; 50 µg/mL): 2.753 ± 0.09 | CUPRAC (Absorbance) ([6]; 100 µg/mL): 3.769 ± 0.05 and 3.769

C[C@H]1[C@H](C)CC[C@]2(C(=O)O)CC[C@]3(C)C(=CC[C@@H]4[C@@]5(C)CC[C@H](O)C(C)(C)[C@@H]5CC[C@]43C)[C@H]12 [Ursolic acid]
IC50 [7]: 30.2 µM

CO/N=C(\C(=O)N[C@@H]1C(=O)N2C(C(=O)[O-])=C(COC(N)=O)CS[C@H]12)c1ccco1.[Na+] [Cefuroxime-Na]
MIC [8]: 4.9 µg/mL | MIC [9]: 4.9 µg/mL | MIC [10]: 9.8 µg/mL | MIC [11]: 2.4 µg/mL | MIC [12]: 1.2 µg/mL

Cc1cc(C(C)(C)C)c(O)c(C(C)(C)C)c1 [BHT]
DPPH (% Inhibition) ([4]; 10 µg/mL): 39.28 ± 1.03% | DPPH (% Inhibition) ([4]; 25 µg/mL): 60.68 ± 4.18% | DPPH (% Inhibition) ([4]; 50 µg/mL): 69.14 ± 1.84% | DPPH (% Inhibition) ([4]; 100 µg/mL): 76.17% | ABTS (% Inhibition) ([5]; 10 µg/mL): 76.35 ± 0.78% | ABTS (% Inhibition) ([5]; 25 µg/mL): 88.00 ± 2.49% | ABTS (% Inhibition) ([5]; 50 µg/mL): 88.96 ± 0.13% | ABTS (% Inhibition) ([5]; 100 µg/mL): 89.13% | CUPRAC (Absorbance) ([6]; 10 µg/mL): 0.652 ± 0.01 | CUPRAC (Absorbance) ([6]; 25 µg/mL): 1.211 ± 0.18 | CUPRAC (Absorbance) ([6]; 50 µg/mL): 2.040 ± 0.31 | CUPRAC (Absorbance) ([6]; 100 µg/mL): 3.559 ± 0.27 and 3.559

O=c1c(O[C@@H]2OC[C@H](O)[C@H](O)[C@H]2O)c(-c2ccc(O)c(O)c2)oc2cc(O)cc(O)c12 [guaijaverin]
IC50 [13]: 17.2 ± 0.75 µM

C[C@@H]1[C@H](O)[C@@H](C)/C=C/C=C/C=C/C=C/C=C/C=C/C=C/[C@H](O[C@@H]2O[C@H](C)[C@@H](O)[C@H](N)[C@@H]2O)C[C@@H]2O[C@](O)(C[C@@H](O)C[C@@H](O)[C@H](O)CC[C@@H](O)C[C@@H](O)CC(=O)O[C@H]1C)C[C@H](O)[C@H]2C(=O)O [Amphotericin B]
MIC [14]: 0.5 µg/mL (≈ 0.541 µM) | MIC [15]: 1 µg/mL (≈ 1.08 µM)

Cc1c(C)c2c(c(C)c1O)CC[C@@](C)(CCC[C@H](C)CCC[C@H](C)CCCC(C)C)O2 [α-TOC]
DPPH (% Inhibition) ([4]; 10 µg/mL): 63.28 ± 3.28% | DPPH (% Inhibition) ([4]; 25 µg/mL): 73.51 ± 4.14% | DPPH (% Inhibition) ([4]; 50 µg/mL): 76.94 ± 0.71% | DPPH (% Inhibition) ([4]; 100 µg/mL): 78.07% | ABTS (% Inhibition) ([5]; 10 µg/mL): 65.39 ± 2.37% | ABTS (% Inhibition) ([5]; 25 µg/mL): 83.47 ± 0.98% | ABTS (% Inhibition) ([5]; 50 µg/mL): 85.89 ± 2.62% | ABTS (% Inhibition) ([5]; 100 µg/mL): 88.89% | CUPRAC (Absorbance) ([6]; 10 µg/mL): 0.391 ± 0.01 | CUPRAC (Absorbance) ([6]; 25 µg/mL): 0.904 ± 0.00 | CUPRAC (Absorbance) ([6]; 50 µg/mL): 1.563 ± 0.09 | CUPRAC (Absorbance) ([6]; 100 µg/mL): 2.460 ± 0.09 and 2.460
